Test system: 12 human primary cell-based systems
Test: BioMAP Diversity PLUS panel, protein biomarker readouts and cytotoxicity
From the text: This example describes testing the compound prepared in Example 1 in the BioMAP Diversity PLUS (Eurofins Discovery, Burlingame, California) panel of 12 human primary cell-based systems designed to model different aspects of the human body in an in vitro format. The 12 systems in the Diversity PLUS panel allow test agent characterization in an unbiased way across a broad set of systems modeling various human disease states. BioMAP systems are constructed with one or more primary cell types from healthy human donors, with stimuli (such as cytokines or growth factors) added to capture relevant signaling networks that naturally occur in human tissue or pathological conditions. Vascular biology is modeled in both a Th1 (3C system) and a Th2 (4H system) inflammatory environment, as well as in a Th1 inflammatory state specific to arterial smooth muscle cells (CASM3C system). Additional systems recapitulate aspects of the systemic immune response including monocyte-driven Th1 inflammation (LPS system) or T cell stimulation (SAg system), chronic Th1 inflammation driven by macrophage activation (lMphg system) and the T cell-dependent activation of B cells that occurs in germinal centers (BT system). The BE3C system (Th1) and the BF4T system (Th2) represent airway inflammation of the lung, while the MyoF system models myofibroblast-lung tissue remodeling. Lastly, skin biology is addressed in the KF3CT system modeling Th1 cutaneous inflammation and the HDF3CGF system modeling wound healing.
The X-axis lists the quantitative protein-based biomarker readouts measured in each system. The Y-axis represents a log-transformed ratio of the biomarker readouts for the drug-treated sample (n=1) over vehicle controls (n≥6). The grey region around the Y-axis represents the 95% significance envelope generated from historical vehicle controls. Biomarker activities are annotated when two or more consecutive concentrations change in the same direction relative to vehicle controls, are outside of the significance envelope, and have at least one concentration with an effect size >20% (|log 10 ratio|>0.1). Biomarker key activities are described as modulated if these activities increase in some systems, but decrease in others. Cytotoxicity is indicated on the profile plot by a thin black arrow above the X-axis, and antiproliferative effects are indicated by a thick grey arrow. Cytotoxicity and antiproliferative arrows only require one concentration to meet the indicated threshold for profile annotation. As summarized in Table 2 below, the compound was active with 35 annotated readouts. Specifically, the compound impacted inflammation-related activities (decreased Eotaxin 3, VCAM-1, MCP-1, SAA, sTNFα, MIP-1α; increased IL-1α, IL-6; modulated IL-8), immunomodulatory activities (decreased CD40, sIL-1β, sIgG, M-CSF, sIL-17A, sIL-6, sIL-17F, sIL-2), tissue remodeling activities (decreased PAI-1, uPAR, αSMA, Keratin 8/18; increased collagen I, MMP-1), and hemostasis-related activities (increased TF).
BioMAP® panels consist of human primary cell-based systems designed to model different aspects of the human body in an in vitro format. BioMAP® systems are constructed with one or more primary cell types from healthy human donors, with stimuli (such as cytokines or growth factors) added to capture relevant signaling networks that naturally occur in human tissue or pathological conditions. Vascular biology is modeled in both a Th1 (3C system) and a Th2 (4H system) inflammatory environment, as well as in a Th1 inflammatory state specific to arterial smooth muscle cells (CASM3C system). Additional systems recapitulate aspects of the systemic immune response including monocyte-driven Th1 inflammation (LPS system) or T cell stimulation (SAg system), chronic Th1 inflammation driven by macrophage activation (Mphg system) and the T cell-dependent activation of B cells that occurs in germinal centers (BT system). […]

[1] = Example 3.2, hemostasis-related activities
[2] = Example 3.2, immunomodulatory activities
[3] = Example 3.2, inflammation-related activities
[4] = Example 3.2, tissue remodeling activities

SMILES: C1=NC(c2cncc(C3CCC=N3)c2)CC1 (centres unmarked) [3,5-bis(3,4-dihydro-2H-pyrrol-2-yl)pyridine]
- LDLR (Example 3.2): decrease
- TF [1]: increased
- TM [1]: decreased
- CD38 [2]: decreased
- CD40 [2]: decreased
- HLA-DR [2]: decreased
- sIL-1β [2]: decreased
- sIL-2 [2]: decreased
- sIL-6 [2]: decreased
- sIL-17A [2]: decreased
- sIL-17F [2]: decreased
- sIgG [2]: decreased
- Eotaxin 3 [3]: decreased
- IL-6 [3]: decreased
- IL-8 [3]: modulated
- MCP-1 [3]: decreased
- MIG [3]: decreased
- P-selectin [3]: decreased
- VCAM-1 [3]: decreased
- sPGE2 [3]: increased
- sTNFα [3]: modulated
- Collagen IV [4]: decreased
- MMP9 [4]: decreased
- MMP-1 [4]: decreased
- PAI-1 [4]: decreased
- TIMP-1 [4]: decreased
- alphaSMA [4]: decreased
- uPAR [4]: decreased
- cytotoxicity (at the concentrations tested in this study): not cytotoxic
